According to US20160045505A1, “COMPOUNDS AND COMPOSITIONS FOR THE TREATMENT OF PARASITIC DISEASES” (NOVARTIS AG, priority 2013, published 2016):
Read-outs that look alike come from different tables or passages of the source.

How the values were obtained:
[1] = tested on: Leishmania donovani axenic amastigote parasites; assay: Leishmania donovani axenic amastigote proliferation assay (Cell TiterGlo luminescence, 2 day incubation); assay type: cell-based; conditions: Leishmania donovani, read-out: L. donovani amastigotes EC50
[2] = tested on: L. donovani HU3 strain in mouse peritoneal macrophages; assay: Assay for proliferation of Leishmania parasites in infected mouse peritoneal macrophages (SybrGreen staining, high-content imaging, 5 days); assay type: cell-based, Leishmania donovani; conditions: Leishmania donovani, Peritoneal macrophage, L. donovani in mouse peritoneal macrophages, read-out: L. donovani Macrophage EC50
[3] = tested on: Trypanosoma cruzi amastigotes (Tulahuen strain expressing Lac-Z) cultured in 3T3 fibroblast cells; assay: microbe, parasite or virus in culture; assay type: cell-based; conditions: Trypanosoma cruzi, TULAHUEN, Fibroblast, T. cruzi amastigotes in 3T3 fibroblast cells, read-out: T cruzi EC50
[4] = tested on: Trypanosoma brucei Lister 427 strain, bloodstream form; assay: Assay for proliferation of kinetoplastid parasite Trypanosoma brucei (Cell Titer Glo, 48 hours); assay type: cell-based; conditions: Trypanosoma brucei, T. brucei Lister 427 bloodstream form, read-out: T. brucei EC50
Outline: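 Bloodstream-form T. brucei Lister 427 in HMI-9 medium was exposed to compound (DMSO vehicle) for 48 hours at 37° C, 5% CO2. Parasite growth was read as ATP by CellTiter-Glo luminescence, with EC50 calculated from percent inhibition.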

[5] = axenic amastigotes, inhibition of proliferation

Row | SMILES | EC50 [1, 5] [nM] | EC50 ([2]; inhibition of proliferation) [nM] | EC50 ([3]; inhibition of proliferation) [nM] | EC50 ([4]; inhibition of proliferation) [nM] | EC50 ([1]; L. donovani axenic amastigotes) [nM] | EC50 [2] [nM] | EC50 [3] [nM] | EC50 [4] [nM]
1 | Cc1ncc(C(=O)Nc2ccc(F)c(-c3cn4cc(C5CCC5)cnc4n3)c2)o1 [Compound 211] | 21 | 55 | 16 | 29 | – | – | – | –
2 | Cc1nc(C)c(C(=O)Nc2ccc(F)c(-c3cn4cc(N5CCCC5)cnc4n3)c2)o1 [Compound 493] | – | – | – | – | 260 | 192 | 31 | 40
3 | COC(=O)Nc1cnc2nc(-c3cc(NC(=O)c4oc(C)nc4C)ccc3F)cn2c1 [Compound 310] | 243 | 564 | 1240 | 293 | – | – | – | –
4 | CN1CCOC(C(=O)Nc2ccc(F)c(-c3cn4cc(C5CC5)cnc4n3)c2)C1 (stereo not drawn) [Compound 601] | – | – | – | – | > 25000 | 4040 | > 20000 | > 50000
5 | COCCC(=O)Nc1cnc2nc(-c3cc(NC(=O)c4oc(C)nc4C)ccc3F)cn2c1 [Compound 166] | 2280 | > 46300 | > 20000 | 1010 | – | – | – | –
6 | Cc1nc(C)c(C(=O)Nc2ccc(F)c(-c3cn4cc(NC(=O)C5COCCO5)cnc4n3)c2)o1 (stereo not drawn) [Compound 113] | 257 | 502 | 2990 | 452 | – | – | – | –
7 | CC(C)OC(=O)Nc1cnc2nc(-c3cccc(NC(=O)c4cnco4)c3)cn2c1 [Compound 203] | 970 | 13800 | 10600 | 1160 | – | – | – | –
8 | CC(C)OC(=O)Nc1cnc2nc(-c3cc(NC(=O)c4ccc(Br)o4)ccc3F)cn2c1 [Compound 70] | 136 | 190 | 72 | 54 | – | – | – | –
9 | O=C(Nc1ccc(F)c(-c2cn3cc(-c4ccccc4)cnc3n2)c1)N1CC(F)(F)C1 [Compound 319] | 33 | 102 | 20 | 20 | – | – | – | –
10 | COCCOC(=O)Nc1cnc2nc(-c3cc(NC(=O)N4CCCC4)ccc3F)cn2c1 [Compound 313] | 761 | > 50000 | 13300 | 502 | – | – | – | –
11 | CC(C)OC(=O)Nc1cnc2nc(-c3cc(NC(=O)c4cn5cccnc5n4)ccc3Cl)cn2c1 [Compound 49] | > 25000 | > 50000 | > 20000 | > 50000 | – | – | – | –
12 | Cc1nc(C)c(C(=O)Nc2ccc(F)c(-c3cn4cc(NC(=O)c5ccc(CN(C)C)cn5)cnc4n3)c2)o1 [Compound 195] | 5640 | 5330 | 2040 | 463 | – | – | – | –
13 | Cc1nc(C)c(C(=O)Nc2ccc(F)c(-c3cn4cc(NC(=O)c5ccc(CN(C)C)cc5)cnc4n3)c2)o1 [Compound 189] | 9070 | 15500 | 10700 | 4270 | – | – | – | –
14 | Cc1nc(C)c(C(=O)Nc2ccc(F)c(-c3cn4cc(-c5ccc(CCO)cc5)cnc4n3)c2)o1 [Compound 349] | 74 | 672 | 180 | 69 | – | – | – | –
15 | Cc1ncc(C(=O)Nc2ccc(F)c(-c3cn4cc(C5=CCOCC5)cnc4n3)c2)o1 [Compound 330] | 28 | 114 | 104 | 36 | – | – | – | –
16 | COCCOc1cnc2nc(-c3cc(NC(=O)c4oc(C)nc4C)ccc3F)cn2c1 [Compound 547, N-(4-fluoro-3-(6-(2-methoxyethoxy)imidazo[1,2-a]pyrimidin-2-yl)phenyl)-2,4-dimethyloxazole-5-carboxamide] | – | – | – | – | 856 | 4530 | 1360 | 607
17 | Cc1ncc(C(=O)Nc2cnc3nc(-c4cc(NC(=O)N5CCCC5)ccc4F)cn3c2)o1 [Compound 132] | 2870 | > 50000 | > 13800 | 1550 | – | – | – | –
18 | O=C(Nc1ccc(F)c(-c2cn3cc(Cl)cnc3n2)c1)N1CC[C@@H](F)C1 [Compound 236] | 95 | 434 | 98 | 36 | – | – | – | –
19 | CC(C)OC(=O)Nc1cnc2nc(-c3cc(NC(=O)N4CC(F)C4)ccc3F)cn2c1 [Compound 287] | 120 | 402 | 1430 | 77 | – | – | – | –
20 | Cc1nc(C)c(C(=O)Nc2ccc(F)c(-c3cn4cc(-c5ncccc5F)cnc4n3)c2)o1 [Compound 449] | – | – | – | – | 28 | 54 | 22 | 56
21 | CC1(C(=O)Nc2cnc3nc(-c4cc(NC(=O)N5CCCC5)ccc4F)cn3c2)CCCCO1 (stereo not drawn) [Compound 136] | 392 | 1420 | > 20000 | 157 | – | – | – | –

Row | SMILES | EC50 [1, 5] [nM] | EC50 ([2]; inhibition of proliferation) [nM] | EC50 ([3]; inhibition of proliferation) [nM] | EC50 ([4]; inhibition of proliferation) [nM] | EC50 ([1]; L. donovani axenic amastigotes) [nM] | EC50 [2] [nM] | EC50 [3] [nM] | EC50 [4] [nM]
22 | Cc1nc(C)c(C(=O)Nc2ccc(F)c(-c3cn4cc(NC(=O)c5nc(N)cn5C)cnc4n3)c2)o1 [Compound 178] | 6710 | > 42500 | > 20000 | 2970 | – | – | – | –
23 | O=C(Nc1ccc(F)c(-c2cn3cc(C4CC4)cnc3n2)c1)[C@H]1CC[C@@H](O)CC1 [Compound 598] | – | – | – | – | 2770 | 10300 | 2550 | 4360
24 | C=C(C)c1cnc2nc(-c3cc(NC(=O)c4oc(C)nc4C)ccc3F)cn2c1 [Compound 537, N-(4-fluoro-3-(6-(prop-1-en-2-yl)imidazo[1,2-a]pyrimidin-2-yl)phenyl)-2,4-dimethyloxazole-5-carboxamide] | – | – | – | – | 124 | 286 | 103 | 164
25 | Cc1cc(C(=O)Nc2ccc(F)c(-c3cn4cc(NC(=O)OC(C)C)cnc4n3)c2)[nH]n1 [Compound 79] | 7280 | > 50000 | > 20000 | 7350 | – | – | – | –
26 | Cc1nc(C)c(C(=O)Nc2ccc(F)c(-c3cn4cc(-c5ccncc5)cnc4n3)c2)o1 [Compound 377] | – | – | – | – | 75 | 144 | 137 | 42
27 | Cc1nc(C)c(C(=O)Nc2ccc(F)c(-c3cn4cc(-c5ncc(F)cc5C)cnc4n3)c2)o1 [Compound 430, N-(4-fluoro-3-(6-(5-fluoro-3-methylpyridin-2-yl)imidazo[1,2-a]pyrimidin-2-yl)phenyl)-2,4-dimethyloxazole-5-carboxamide] | – | – | – | – | 31 | 59 | 10 | 52
28 | CC(=O)Nc1ncc(C(=O)Nc2ccc(Cl)c(-c3cn4cc(NC(=O)OC(C)C)cnc4n3)c2)s1 [Compound 50] | > 25000 | > 50000 | > 20000 | > 50000 | – | – | – | –
29 | Cc1nc(C)c(C(=O)Nc2ccc(F)c(-c3cn4cc(NC(=O)C5CCOC(C(C)C)C5)cnc4n3)c2)o1 (stereo not drawn) [Compound 120] | 300 | 975 | 767 | 419 | – | – | – | –
30 | Cc1nc(C)c(C(=O)Nc2ccc(F)c(-c3cn4cc(NC(=O)C5CCCCN5C)cnc4n3)c2)o1 (stereo not drawn) [Compound 165] | > 25000 | > 50000 | 5180 | 1450 | – | – | – | –
31 | Cc1nc(C)c(C(=O)Nc2ccc(F)c(-c3cn4cc(NC(=O)OCCF)cnc4n3)c2)o1 [Compound 307] | 249 | 428 | 2540 | 356 | – | – | – | –
32 | Cc1nc(C)c(C(=O)Nc2ccc(F)c(-c3cn4cc(N(C)C(C)C)cnc4n3)c2)o1 [Compound 483] | – | – | – | – | 169 | 196 | 74 | 70
33 | Cc1nc(C)c(C(=O)Nc2ccc(F)c(-c3cn4cc(-c5ccc(CCN6CCOCC6)cc5)cnc4n3)c2)o1 [Compound 348] | 341 | 1030 | 41 | 165 | – | – | – | –
34 | O=C(Nc1ccc(F)c(-c2cn3cc(F)cnc3n2)c1)N1CCC1 [Compound 232] | 381 | 1650 | 384 | 203 | – | – | – | –
35 | Cc1nc(C)c(C(=O)Nc2ccc(F)c(-c3cn4cc(C(F)(F)F)cnc4n3)c2)o1 [Compound 200] | 219 | 631 | 147 | 164 | – | – | – | –
36 | C=C(C)OC(=O)Nc1cnc2nc(-c3cc(NC(=O)c4oc(C)nc4C)ccc3F)cn2c1 [Compound 311] | 162 | 12000 | 5580 | 1670 | – | – | – | –
37 | Cc1nc(C)c(C(=O)Nc2ccc(F)c(-c3cn4cc(NC(=O)[C@@H]5CCCC[C@@H]5N)cnc4n3)c2)o1 [Compound 168] | 20300 | 24400 | > 18400 | 4370 | – | – | – | –
38 | Nc1cc(-c2cnc3nc(-c4cc(NC(=O)N5CCCC5)ccc4F)cn3c2)ccn1 [Compound 342] | 2140 | 14600 | 9360 | 364 | – | – | – | –
39 | Cc1nc(C)c(C(=O)Nc2ccc(F)c(-c3cn4cc(NC(=O)[C@@H]5[C@H](N)[C@@H]6C=C[C@H]5C6)cnc4n3)c2)o1 [Compound 180] | > 25000 | > 50000 | > 20000 | 4380 | – | – | – | –
40 | O=C(Nc1ccc(F)c(-c2cn3cc(F)cnc3n2)c1)N1CC(F)(F)C1 [Compound 233] | 290 | 2050 | 754 | 326 | – | – | – | –
41 | O=C(Nc1cccc(-c2cn3cc(-c4ccccc4)cnc3n2)c1)N1CC[C@@H](F)C1 [Compound 337] | 72 | 195 | 68 | 24 | – | – | – | –
42 | Cc1nc(C)c(C(=O)Nc2ccc(F)c(-c3cn4cc(-c5ccncc5F)cnc4n3)c2)o1 [Compound 444] | – | – | – | – | 86 | 183 | 50 | 25
